Tests used:
deoxymyoglobin = assay: Myoglobin assay, CO release under 365 nm UV light; conditions: 365 nm lamp; for [MbCO] / Released-CO Equivalent / Half-life t 1/2 (50% of total CO release): 15 μM complex, pH 7.4; for [MbCO]: 60 μM myoglobin reduced with sodium dithionite; for Released-CO Equivalent / Half-life t 1/2 (50% of total CO release): 60 μM myoglobin; for Released-CO Percent: percent of the total CO
Procedure: The myoglobin solution, which was prepared in PBS (pH 7.4, 0.1 M), was reduced to deoxymyoglobin using sodium dithionite (100 mM). The solutions of each complex ([…]) in DMSO were incubated with deoxymyoglobin solution ([…]), and the final solution was exposed to 365 nm UV light from a distance of 2 cm. Deoxymyoglobin has a band at 557 nm, while carbonmonoxy-myoglobin has two identical bands at 540 and 577 nm, and the changes at these wavelengths make the process observable and determinable. Thus, the CO-releasing properties of the molecules were calculated using the Lambert–Beer Law.
The commonly used method for determining the CO-releasing of a molecule is UV–visible spectroscopy. There are various ways for releasing CO from a molecule such as substitution, decomposition, and photoactivation. , Manganese carbonyl complexes are known as photoactivatable CO-releasing molecules (photoCORM). A photoCORM must be stable in the dark while it releases CO upon exposure to light of a certain wavelength. […] The basic principle of the myoglobin assay is based on the formation of carbon monoxymyoglobin with the interaction of deoxymyoglobin with CORMs by the spectrophotometric method. […] A 15 μM solution of the complexes was incubated with a 60 μM myoglobin solution reduced with sodium dithionite in a pH 7.4 buffered medium, and the change was followed by the spectroscopic method. The CO-releasing properties of a molecule could be evaluated from two perspectives: the first is how fast the molecule’s release is, and the second is how high the rate of the releasing is.

CT-DNA = assay: DNA binding analysis, UV-vis, Benesi-Hildebrand method; conditions: 25 μM DNA, 0-35 μM complex, Tris-HCl pH 7.4, 1 h room temperature, absorbance at 260 nm
Procedure: DNA-binding properties of the molecules were analyzed with the Benesi–Hildebrand method with UV–vis spectroscopy. The stock solution of manganese complexes (3 mM) was prepared with DMSO, while a fresh stock solution of DNA from commercial CT-DNA was prepared in Tris-HCl buffer solution (pH = 7.4), and the ratio of A 260/A 280 of the DNA stock was recorded as 1.93. A certain concentration of DNA (25 μM) solution was incubated with different amounts of each complex (0, 5, 10, 15, 20, 25, 30, and 35 μM) for 1 h at room temperature. The absorption spectra of all solutions were recorded using a Shimadzu UV-1800 spectrophotometer between 240 and 500 nm.
In this study, the DNA-binding affinity of the molecules was also confirmed with a UV–vis spectrophotometer. […] While small fluctuations for 300 μM of each complex were recorded upon the addition of DNA solutions with different concentrations (0, 20, 40, 60, 80, 100, 120, and 140 μM) at 388 nm (Figures S6–S10), remarkable changes were detected at 260 nm, which is characteristic of DNA.
Here, A o is the absorbance of DNA in the absence of the manganese complex, A obs is the absorbance of DNA at 260 nm with different amounts of the molecules, [M] is the molar concentration of the molecules, and K b is the binding constant. […] These binding constants are moderately available for DNA-target drug candidates.

BSA = BSA (Bos taurus, UniProt P02769); assay: BSA binding analysis, UV-vis, Benesi-Hildebrand method; set-up: species or system bovine; conditions: 15 μM BSA, 0-14 μM complex, PBS pH 7.4, 20 min room temperature, band at 280 nm
Procedure: BSA binding analysis of the molecules was performed with UV–vis spectroscopy, and the records were evaluated using the Benesi-Hildebrand equation. The BSA stock solution was freshly prepared in phosphate-buffered saline (pH 7.4), while the stock solutions of the molecules were prepared in DMSO. A certain BSA solution (15 μM) was incubated with each molecule at different concentrations (0, 2, 4, 6, 8, 10, 12, and 14 μM) for 20 min at room temperature. The absorption spectra of all solutions were recorded between 250 and 350 nm.

Sequence of BSA (P02769 25-607): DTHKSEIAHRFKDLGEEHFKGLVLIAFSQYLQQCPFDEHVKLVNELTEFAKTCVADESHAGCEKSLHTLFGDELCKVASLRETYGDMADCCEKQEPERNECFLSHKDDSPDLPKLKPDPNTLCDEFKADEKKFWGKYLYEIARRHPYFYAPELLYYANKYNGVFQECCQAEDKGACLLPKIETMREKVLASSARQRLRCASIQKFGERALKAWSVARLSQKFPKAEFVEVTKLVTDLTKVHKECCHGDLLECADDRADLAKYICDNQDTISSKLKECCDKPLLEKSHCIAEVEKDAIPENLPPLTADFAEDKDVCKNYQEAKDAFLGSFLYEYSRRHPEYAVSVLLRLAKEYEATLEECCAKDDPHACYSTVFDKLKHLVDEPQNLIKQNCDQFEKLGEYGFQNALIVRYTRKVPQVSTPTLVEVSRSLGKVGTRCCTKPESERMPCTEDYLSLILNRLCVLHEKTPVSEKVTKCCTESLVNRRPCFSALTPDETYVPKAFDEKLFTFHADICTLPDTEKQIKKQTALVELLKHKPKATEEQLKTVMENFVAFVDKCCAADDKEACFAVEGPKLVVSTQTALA

## [Mn(CO)3(bpy)(1-(2-metallyl)benzimidazole)]PF6 [2c]
deoxymyoglobin
  [MbCO]: 39.81 µM
  Released-CO Equivalent: 2.65
  Released-CO Percent: 88%
CT-DNA
  DNA binding constant K b: 1.8 × 10^4 M^–1
BSA
  BSA binding constant: 4.0 × 10^4 M^–1

## [Mn(CO)3(bpy)(1-isopropylbenzimidazole)]PF6 [2a]
deoxymyoglobin
  [MbCO]: 34.64 µM
  Half-life t 1/2 (50% of total CO release): 4.02 min
  Released-CO Equivalent: 2.30
  Released-CO Percent: 77%
CT-DNA
  DNA binding constant K b: 3.2 × 10^4 M^–1
BSA
  BSA binding constant: 3.6 × 10^4 M^–1

## [Mn(CO)3(bpy)(1-(3,3-dimethylallyl)benzimidazole)]PF6 [2d]
deoxymyoglobin
  [MbCO]: 30.34 µM
  Released-CO Equivalent: 2.02
  Released-CO Percent: 67%
CT-DNA
  DNA binding constant K b: 2.4 × 10^4 M^–1
BSA
  BSA binding constant: 8.2 × 10^4 M^–1

## [Mn(CO)3(bpy)(1-(2-vinyloxyethyl)benzimidazole)]PF6 [2e]
deoxymyoglobin
  [MbCO]: 40.41 µM
  Released-CO Equivalent: 2.69
  Released-CO Percent: 90%
CT-DNA
  DNA binding constant K b: 2.7 × 10^4 M^–1
BSA
  BSA binding constant: 3.9 × 10^4 M^–1

## C=CCn1c[n+]([Mn-2]2(=[C]=O)(=[C]=O)(=[C]=O)[n+]3ccccc3-c3cccc[n+]32)c2ccccc21.F[P-](F)(F)(F)(F)F [2b, [Mn(CO)3(bpy)(1-allylbenzimidazole)]PF6]
deoxymyoglobin
  [MbCO]: 39.51 µM
  Half-life t 1/2 (50% of total CO release): 4.85 min
  Released-CO Equivalent: 2.63
  Released-CO Percent: 88%
CT-DNA
  DNA binding constant K b: 2.2 × 10^4 M^–1
BSA
  BSA binding constant: 4.3 × 10^4 M^–1

Reference: article PMC12290954, “Synthesis, Characterization, Computational Evaluation, CO-Releasing Properties, and Molecular Docking Interactions of New [Mn(CO)3(bpy)L]PF6‑Type Molecules” (ACS Omega, 2025)
